In patent US10119972B2, “Reactive labelling compounds and uses thereof” (Academia Sinica, priority 2014, dated 2018):
“Also recorded” adds a separate entry of the source.

Columns and labels:
[1] = Absorption and fluorescence spectroscopy under simulated physiological conditions; type: physicochemical; settings: for Absorption (λmax, nm) / Stokes shift / Emission (λmax, nm) / ε (M^−1cm^−1), extinction coefficient / Φf, fluorescence quantum yield: PBS buffer containing 10% DMSO, pH 7.4; for Emission (λmax, nm): excitation at 330 nm; for ε (M^−1cm^−1), extinction coefficient: measured at 330 nm; for Φf, fluorescence quantum yield: quinine sulfate (Φf = 0.54 ± 0.03) as standard; for increase in quantum yield compared to unreacted 101: triazole product vs 101
Description: Formation of triazoles 111 and 112 were accompanied by a significant increase in fluorescence intensity with a large Stokes shift into a standard range for coumarin emission (FIG. 16a).
FIG. 16 describes (a) Absorption and Fluorescence emission spectra (λex=330 nm) of 101 (black), 111 (blue) and 112 (red) (45 μM, PBS buffer containing 10% DMSO, pH 7.4). (b) Time course of normalized fluorescence intensity at 435 nm (λex=330 nm) for the ligation reaction of 101 (30 μM) with N-azidoacetylmannosamine (30 μM) in PBS buffer containing 10% DMSO.

CL1-5 cells = experiment: Dual fluorescence labeling in cells (SPAAC with CuAAC), confocal microscopy; type: cell-based; settings: CL1-5 cells with Ac4ManNAl and Ac4GlcNAz; 100 μM coumOCT, 0.1 μM AzBOCEt
Description: A dual-labeling experiment was performed using SPAAC in combination with CuAAC for the concurrent fluorescence labeling of two different metabolically incorporated glycoconjugates. Peracetylated N-acetylmannosamine (Ac4ManNAc) and peracetylated N-acetylglucosamine (Ac4GlcNAc) were employed as the control sugars. ManNAc is converted metabolically to sialic acid that is found as a terminal monosaccharide of glycoproteins and glycolipids in cell, whereas GlcNAz is an internal monosaccharide that abundant in the N- and O-linked glycans produced in the endoplasmic reticulum and Golgi. CL1-5 cells were incubated in the presence of both alkyne-containing sugar (Ac4ManNAl) and azido-containing sugar (Ac4GlcNAz) for three days. The cells were stained by SPAAC with coumOCT (for azido sugars), followed by CuAAC with AzBOCEt^6j (for alkynyl sugars), and investigated by confocal microscopy (FIG. 24).
(A) Illustration of the cell labeling experiments using Ac4ManNAl, Ac4GlcNAz, 101 and AzBOCEt. CL1-5 cells were incubated with 100 μM of Ac4ManNAl and Ac4GlcNAz or control sugars (Ac4ManNAc and Ac4GlcNAc) for 3 days, which were treated with 100 μM of probe 101 for 0.5 h under SPAAC conditions, and then incubated with 0.1 μM of AzBOCEt for 1 h under CuAAC conditions. (B) Dual fluorescence imaging in CL1-5 cells. […]

[2] = Stability in presence of 3-mercaptopropionic acid by 1H-NMR; type: physicochemical; settings: 25 mM in CDCl3 with 3-mercaptopropionic acid (32 mM), 25° C., 24 h
Description: A potential problematic side reaction of cyclooctynes is the addition with proteinic or endogenous thiols to the corresponding vinyl sulfides. To test whether potential non-specific stainings of 101 and the corresponding triazole 111 may occur due to additions of the SH groups to the triple bond or double bond by proteinic or endogenous thiols, the experiment was performed by incubation of 101 and 111 with 3-mercaptopropionic acid in CDCl3 (FIGS. 25 and 26).
A solution of compound 101 and compound 111 (25 mM in CDCl3) was incubated with a solution of 3-mercaptopropionic acid (32 mM in CDCl3) at room temperature (25° C.).
FIG. 25 show ^1H-NMR spectrum in CDCl3 of compound 101 and 3-mercaptopropionic acid alone, and ^1H-NMR spectrum of compound 101 was treated with 3-mercaptopropionic acid at 25° C. for 0 h, 2 h and 24 h.

Row | Absorption (λmax, nm) [1] | Stokes shift [1] | Emission (λmax, nm) [1] | ε (M^−1cm^−1), extinction coefficient [1] | Φf, fluorescence quantum yield [1] | increase in quantum yield compared to unreacted 101 [1] | thiol-yne or thiol-ene addition / stability in the presence of thiols [2] | Structure (SMILES) | localization of labeled glycoconjugates (CL1-5 cells)
1 | 330 nm | 7320 cm⁻¹ | 435 nm | 10800 M⁻¹ cm⁻¹ | 0.21 | 20 fold |  | O=C(Cn1nnc2c1CCCCc1cc3ccc(=O)oc3cc1-2)NC1C(O)OC(CO)[C@@H](O)C1O (stereo partly drawn) [Compound 112, N-[2-(11-Oxo-4,6,7,11-tetrahydrochromeno[7′,6′:3,4]cycloocta[1,2-d][1,2,3]triazol-3(5H)-yl)]acetamido-2-deoxy-α,β-D-mannopyranose] | 
2 |  |  |  |  |  |  |  | CCOC(=O)C1=C(C)C2=C(c3cc(N=[N+]=[N-])ccc3OC)c3c(C)c(C(=O)OCC)c(C)n3[B-](F)(F)[N+]2=C1C [Az10, 8-(5-Azido-2-methoxyphenyl)-2,6-diethoxycarbonyl-4,4-difluoro-1,3,5,7-tetramethyl-4-bora-3a,4a-diaza-s-indacene] | observed clearly on the cell surface and partially in the cytosol
3 | 328 nm | 7500 cm⁻¹ | 435 nm | 12200 M⁻¹ cm⁻¹ | 0.23 | 20 fold | inactive; also recorded: high stability | O=c1ccc2cc3c(cc2o1)-c1nnn(Cc2ccccc2)c1CCCC3 [Compound 111, 10-Benzyl-6,7,8,9-tetrahydro-cyclooctatriazolo[5,4-g]chromen-2(2H)-one] | 
